Results from PubChem BioAssay (NCI).
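Five concentrations, 48 hours, 96-well plates. At the TGI there is no net growth.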

Columns and labels:
Assay in all cases: inhibition of tumour cell growth, NCI panel, 48 h
HCT-15 colon = tested on: HCT-15 colon
HCT-116 colon = tested on: HCT-116 colon
UACC-257 melanoma = tested on: UACC-257 melanoma
DMS 114 small cell lung = tested on: DMS 114 small cell lung
HL-60(TB) leukemia = tested on: HL-60(TB) leukemia
HOP-62 NSCLC = tested on: HOP-62 NSCLC
UACC-62 melanoma = tested on: UACC-62 melanoma
OVCAR-3 ovarian = tested on: OVCAR-3 ovarian
K-562 leukemia = tested on: K-562 leukemia
SNB-19 CNS = tested on: SNB-19 CNS
IGROV1 ovarian = tested on: IGROV1 ovarian
M14 melanoma = tested on: M14 melanoma
RXF-631 renal = tested on: RXF-631 renal
SK-MEL-5 melanoma = tested on: SK-MEL-5 melanoma
786-0 renal = tested on: 786-0 renal
OVCAR-4 ovarian = tested on: OVCAR-4 ovarian
MALME-3M melanoma = tested on: MALME-3M melanoma
OVCAR-8 ovarian = tested on: OVCAR-8 ovarian
M19-MEL melanoma = tested on: M19-MEL melanoma
SF-539 CNS = tested on: SF-539 CNS
HOP-92 NSCLC = tested on: HOP-92 NSCLC
CCRF-CEM leukemia = tested on: CCRF-CEM leukemia
ACHN renal = tested on: ACHN renal
UO-31 renal = tested on: UO-31 renal
U251 CNS = tested on: U251 CNS
COLO 205 colon = tested on: COLO 205 colon
EKVX NSCLC = tested on: EKVX NSCLC
CAKI-1 renal = tested on: CAKI-1 renal
SNB-78 CNS = tested on: SNB-78 CNS
SK-MEL-2 melanoma = tested on: SK-MEL-2 melanoma
DMS 273 small cell lung = tested on: DMS 273 small cell lung
LOX IMVI melanoma = tested on: LOX IMVI melanoma
SW-620 colon = tested on: SW-620 colon
DLD-1 colon = tested on: DLD-1 colon
KM20L2 colon = tested on: KM20L2 colon
OVCAR-5 ovarian = tested on: OVCAR-5 ovarian
A498 renal = tested on: A498 renal
TK-10 renal = tested on: TK-10 renal
A549 NSCLC = tested on: A549 NSCLC
SK-OV-3 ovarian = tested on: SK-OV-3 ovarian
SF-295 CNS = tested on: SF-295 CNS
KM12 colon = tested on: KM12 colon
LXFL 529 NSCLC = tested on: LXFL 529 NSCLC
HCC-2998 colon = tested on: HCC-2998 colon
NCI-H460 lung = tested on: NCI-H460 lung
RPMI-8226 leukemia = tested on: RPMI-8226 leukemia
MOLT-4 leukemia = tested on: MOLT-4 leukemia

Measured: TGI

NS(=O)(=O)c1cc2c(cc1Cl)NC(/C(=N/NC(=O)c1ccncc1)C1C(=O)NC(=O)NC1=O)=NS2(=O)=O
> 100 µM: all assays above
